Bounds are passed on as bounds.

For this assay, the system named is STAT3 phosphorylation in NCI-H1975 cells. The assay is described as follows: Cellular pSTAT3 assay in NCI-H1975 cells. It counts as cell-based. Conditions: Homo sapiens, 2 hours with compound. The protocol:
NCI-H1975 cells were plated onto Costar #3701 96 or 384 well tissue-culture treated plates at 5,000 cells/well in 30 uL medium (RPMI, 10% FBS, supplemented with L-glutamine) and incubated overnight at 37° C. in 5% CO2. Phospho STAT3 signal was quantitated utilizing Cell Signaling Technology #7146B Pathscan […] STAT3 antibody pair kit, following manufacturer's instructions.
Cells were dosed with compound and incubated at 37° C. in 5% CO2 for 2 hours, after which medium and compound were aspirated and cells lysed with 35 uL cold 1×Cell Signaling Lysis buffer and chilled at 4° C. for 1-2 hours. Lysate was incubated on STAT3 capture plates at 4° C. overnight, washed 3× with Tris-Buffered Saline with 0.05% Tween® 20 (TBST), then […] STAT3 detection antibody was applied for 2 hours. Following washing with TBST (3×), HRP-secondary antibody was applied for 2 hours. After additional washing, signal was detected using TMB and Stop solution and read at 450 nm using Tecan Infinite M100.
`COc1nn(C)cc1Nc1nccc(-c2c[nH]c3c(NC(=O)[C@@H](C)N4CCN(C)C[C@@H]4C)cccc23)n1` [Example 1, (2R)-2-[(2S)-2,4-dimethylpiperazin-1-yl]-N-(3-{2-[(3-methoxy-1-methyl-1H-pyrazol-4-yl)amino]pyrimidin-4-yl}-1H-indol-7-yl)propanamide]: the 50% inhibitory concentration (IC50) (in general, the midpoint of a concentration-inhibition curve) is 643 nM.

As for `COc1nn(C)cc1Nc1ncc(F)c(-c2c[nH]c3c(NC(=O)[C@@H](C)N4CCN(C)[C@H](C)C4)cccc23)n1` [Example 2, (2R)-2-[(3R)-3,4-dimethylpiperazin-1-yl]-N-(3-{5-fluoro-2-[(3-methoxy-1-methyl-1H-pyrazol-4-yl)amino]pyrimidin-4-yl}-1H-indol-7-yl)propanamide], the IC50 worked out at 227 nM.

In the case of `COCCN1CCN([C@H](C)C(=O)Nc2cccc3c(-c4nc(Nc5cn(C)nc5OC)ncc4F)c[nH]c23)CC1` [Example 3, (2R)-N-(3-{5-fluoro-[(3-methoxy-1-methyl-1H-pyrazol-4-yl)amino]pyrimidin-4-yl}-1H-indol-7-yl)-2-[4-(2-methoxyethyl)piperazin-1-yl]propanamide], the half-maximal inhibitory concentration (IC50) stood at 302 nM.

Regarding `CCN1CCN([C@H](C)C(=O)Nc2cccc3c(-c4nc(Nc5cn(C)nc5OC)ncc4F)c[nH]c23)CC1` [Example 4, (2R)-2-(4-ethylpiperazin-1-yl)-N-(3-{5-fluoro-2-[(3-methoxy-1-methyl-1H-pyrazol-4-yl)amino]pyrimidin-4-yl}-1H-indol-7-yl)propanamide], the half-maximal inhibitory concentration (IC50) came to 98.6 nM.

Consider `COc1nn(C)cc1Nc1ncc(F)c(-c2c[nH]c3c(NC(=O)[C@@H](C)N4CCN(C)[C@@H](C)C4)cccc23)n1` [Example 5, (2R)-2-[(3S)-3,4-dimethylpiperazin-1-yl]-N-(3-{5-fluoro-2-[(3-methoxy-1-methyl-1H-pyrazol-4-yl)amino]pyrimidin-4-yl}-1H-indol-7-yl)propanamide], for which the IC50 was 87.2 nM.

On to `COc1nn(C)cc1Nc1ncc(F)c(-c2c[nH]c3c(NC(=O)[C@@H](C)N4CCN(C)C[C@H]4C)cccc23)n1` [Example 6, (2R)-2-[(2R)-2,4-dimethylpiperazin-1-yl]-N-(3-{5-fluoro-2-[(3-methoxy-1-methyl-1H-pyrazol-4-yl)amino]pyrimidin-4-yl}-1H-indol-7-yl)propanamide], for which the IC50 worked out at 111 nM.

As for `COc1nn(C)cc1Nc1ncc(F)c(-c2c[nH]c3c(NC(=O)[C@@H](C)N4CCN(C)C[C@@H]4C)cccc23)n1` [Example 7a, (2R)-2-[(3S)-2,4-dimethylpiperazin-1-yl]-N-(3-{5-fluoro-2-[(3-methoxy-1-methyl-1H-pyrazol-4-yl)amino]pyrimidin-4-yl}-1H-indol-7-yl)propanamide], the concentration for half-maximal inhibition (IC50) stood at 509 nM.

With `COc1nn(C)cc1Nc1ncc(F)c(-c2c[nH]c3c(NC(=O)[C@H](C)N4CCN(C)C[C@@H]4C)cccc23)n1` [Example 7b, (2S)-2-[(3S)-2,4-dimethylpiperazin-1-yl]-N-(3-{5-fluoro-2-[(3-methoxy-1-methyl-1H-pyrazol-4-yl)amino]pyrimidin-4-yl}-1H-indol-7-yl)propanamide], the 50% inhibitory concentration (IC50) was more than 3000 nM.

With `CCOc1nn(C)cc1Nc1ncc(F)c(-c2c[nH]c3c(NC(=O)[C@@H](C)N4CCN(CC)CC4)cccc23)n1` [Example 8, (2R)-N-(3-{2[(3-ethoxy-1-methyl-1H-pyrazol-4-yl)amino]-5-fluoropyrimidin-4-yl}-1H-indol-7-yl)-2-(4-ethylpiperazin-1-yl)propanamide], the 50% inhibitory concentration (IC50) was 191 nM.

With `CCOc1nn(C)cc1Nc1ncc(F)c(-c2c[nH]c3c(NC(=O)[C@@H](C)N4CCN(CCOC)CC4)cccc23)n1` [Example 9, (2R)-N-(3-{2-[(3-ethoxy-1-methyl-1H-pyrazol-4-yl)amino]-5-fluoropyrimidin-4-yl}-1H-indol-7-yl)-2-[4-(2-methoxyethyl)piperazin-1-yl]propanamide], the IC50 turned out to be 594 nM.

As to `CCOc1nn(C)cc1Nc1ncc(F)c(-c2c[nH]c3c(NC(=O)[C@@H](C)N4CCN(C)C[C@@H]4C)cccc23)n1` [Example 10a, (2R)-2-[(2S)-2,4-dimethylpiperazin-1-yl]-N-(3-{2-[(3-ethoxy-1-methyl-1H-pyrazol-4-yl)amino]-5-fluoropyrimidin-4-yl}-1H-indol-7-yl)propanamide], the IC50 is 531 nM.

Regarding `CCOc1nn(C)cc1Nc1ncc(F)c(-c2c[nH]c3c(NC(=O)[C@H](C)N4CCN(C)C[C@@H]4C)cccc23)n1` [Example 10b, (2S)-2-[(2S)-2,4-dimethylpiperazin-1-yl]-N-(3-{2-[(3-ethoxy-1-methyl-1H-pyrazol-4-yl)amino]-5-fluoropyrimidin-4-yl}-1H-indol-7-yl)propanamide], the concentration for half-maximal inhibition (IC50) is more than 3000 nM.

Regarding `CCOc1nn(C)cc1Nc1ncc(F)c(-c2c[nH]c3c(NC(=O)[C@@H](C)N4CCN(C)[C@@H](C)C4)cccc23)n1` [Example 11a, (2R)-2-[(3S)-3,4-dimethylpiperazin-1-yl]-N-(3-{2-[(3-ethoxy-1-methyl-1H-pyrazol-4-yl)amino]-5-fluoropyrimidin-4-yl}-1H-indol-7-yl)propanamide], the IC50 was 209 nM.

On to `CCOc1nn(C)cc1Nc1ncc(F)c(-c2c[nH]c3c(NC(=O)[C@H](C)N4CCN(C)[C@@H](C)C4)cccc23)n1` [Example 11b, (2S)-2-[(3S)-3,4-dimethylpiperazin-1-yl]-N-(3-{2-[(3-ethoxy-1-methyl-1H-pyrazol-4-yl)amino]-5-fluoropyrimidin-4-yl}-1H-indol-7-yl)propanamide], for which the IC50 worked out at 2280 nM.

Turning to `CCOc1nn(C)cc1Nc1ncc(F)c(-c2c[nH]c3c(NC(=O)[C@@H](C)N4CCN(C)C[C@H]4C)cccc23)n1` [Example 12, (2R)-2-[(2R)-2,4-dimethylpiperazin-1-yl]-N-(3-{2-[(3-ethoxy-1-methyl-1H-pyrazol-4-yl)amino]-5-fluoropyrimidin-4-yl}-1H-indol-7-yl)propanamide], the IC50 is 246 nM.

As to `CCOc1nn(C)cc1Nc1ncc(F)c(-c2c[nH]c3c(NC(=O)[C@@H](C)N4CCN(C)[C@H](C)C4)cccc23)n1` [Example 13, (2R)-2-[(3R)-3,4-dimethylpiperazin-1-yl]-N-(3-{2-[(3-ethoxy-1-methyl-1H-pyrazol-4-yl)amino]-5-fluoropyrimidin-4-yl}-1H-indol-7-yl)propanamide], the half-maximal inhibitory concentration (IC50) turned out to be 222 nM.

As for `COc1nn(C)cc1Nc1ncc(C)c(-c2c[nH]c3c(NC(=O)[C@@H](C)N4CCN(C)[C@@H](C)C4)cccc23)n1` [Example 14, (2R)-2-[(3S)-3,4-dimethylpiperazin-1-yl]-N-(3-{2-[(3-methoxy-1-methyl-1H-pyrazol-4-yl)amino]-5-methylpyrimidin-4-yl}-1H-indol-7-yl)propanamide], the IC50 is 70.3 nM.

As for `COc1nn(C)cc1Nc1ncc(C)c(-c2c[nH]c3c(NC(=O)[C@@H](C)N4CCN(CCO)CC4)cccc23)n1` [Example 15, (2R)-2-[4-(2-hydroxyethyl)piperazin-1-yl]-N-(3-{2-[(3-methoxy-1-methyl-1H-pyrazol-4-yl)amino]-5-methylpyrimidin-4-yl}-1H-indol-7-yl)propanamide], the half-maximal inhibitory concentration (IC50) is 131 nM.

`CCN1CCN([C@H](C)C(=O)Nc2cccc3c(-c4nc(Nc5cn(C)nc5OC)ncc4C)c[nH]c23)CC1` [Example 16, (2R)-2-(4-ethylpiperazin-1-yl)-N-(3-{2-[(3-methoxy-1-methyl-1H-pyrazol-4-yl)amino]-5-methylpyrimidin-4-yl}-1H-indol-7-yl)propanamide]: the IC50 is 105 nM.

`COCCN1CCN([C@H](C)C(=O)Nc2cccc3c(-c4nc(Nc5cn(C)nc5OC)ncc4C)c[nH]c23)CC1` [Example 17, (2R)-2-[4-(2-methoxyethyl)piperazin-1-yl]-N-(3-{2-[(3-methoxy-1-methyl-1H-pyrazol-4-yl)amino]-5-methylpyrimidin-4-yl}-1H-indol-7-yl)propanamide]: the IC50 stood at 229 nM.

In the case of `COc1nn(C)cc1Nc1ncc(C)c(-c2c[nH]c3c(NC(=O)[C@@H](C)N4CCN(C)[C@H](C)C4)cccc23)n1` [Example 18, (2R)-2-[(3R)-3,4-dimethylpiperazin-1-yl]-N-(3-{2-[(3-methoxy-1-methyl-1H-pyrazol-4-yl)amino]-5-methylpyrimidin-4-yl}-1H-indol-7-yl)propanamide], the IC50 worked out at 175 nM.

In the case of `COc1nn(C)cc1Nc1ncc(C)c(-c2c[nH]c3c(NC(=O)[C@@H](C)N4CCN(C)C[C@@H]4C)cccc23)n1` [Example 19, (2R)-2-[(2S)-2,4-dimethylpiperazin-1-yl]-N-(3-{2-[(3-methoxy-1-methyl-1H-pyrazol-4-yl)amino]-5-methylpyrimidin-4-yl}-1H-indol-7-yl)propanamide], the half-maximal inhibitory concentration (IC50) worked out at 470 nM.

`CCOc1nn(C)cc1Nc1ncc(C)c(-c2c[nH]c3c(NC(=O)[C@@H](C)N4CCN(CC)CC4)cccc23)n1` [Example 20, (2R)-N-(3-{2-[(3-ethoxy-1-methyl-1H-pyrazol-4-yl)amino]-5-methylpyrimidin-4-yl}-1H-indol-7-yl)-2-(4-ethylpiperazin-1-yl)propanamide]: the IC50 amounted to 184 nM.

With `CCOc1nn(C)cc1Nc1ncc(C)c(-c2c[nH]c3c(NC(=O)[C@@H](C)N4CCN(CCOC)CC4)cccc23)n1` [Example 21, (2R)-N-(3-{2-[(3-ethoxy-1-methyl-1H-pyrazol-4-yl)amino]-5-methylpyrimidin-4-yl}-1H-indol-7-yl)-2-[4-(2-methoxyethyl)piperazin-1-yl]propanamide], the IC50 is 703 nM.

`CCOc1nn(C)cc1Nc1ncc(C)c(-c2c[nH]c3c(NC(=O)[C@@H](C)N4CCN(C)C[C@@H]4C)cccc23)n1` [Example 22, (2R)-2-[(2S)-2,4-dimethylpiperazin-1-yl]-N-(3-{2-[(3-ethoxy-1-methyl-1H-pyrazol-4-yl)amino]-5-methylpyrimidin-4-yl}-1H-indol-7-yl)propanamide]: the half-maximal inhibitory concentration (IC50) amounted to 550 nM.

The values are drawn from patent publication US10167276B2, “Compounds and methods for inhibiting JAK” (Dizal (Jiangsu) Pharmaceutical Co., Ltd., priority 2015, dated 2019).
